{"source": "patent US20220064092A1", "about": "“METHYLATION PROCESS” (priority 2019, published 2022)", "origin": "cited, not measured here", "conditions": "qualitative statement"}
{"smiles": "Oc1ccc(/C=C/c2cc(O)cc(O)c2)cc1", "note": "[resveratrol, 3,5,4′-trihydroxy-trans-stilbene]", "values": [{"measurement": "half-life", "result": "very limited half-life"}]}
